Test results from patent US10189857B2, “Positive allosteric modulators of the muscarinic acetylcholine receptor M4” (Vanderbilt University, priority 2016, dated 2019).

Target: T1, Human M4 (Homo sapiens, UniProt P08173)
T1 construct: expressed in transfected cells; host or cells: CHO-K1 (American Type Culture Collection), stably expressing M4 and Gqi5
T1 sequence (P08173 1-479): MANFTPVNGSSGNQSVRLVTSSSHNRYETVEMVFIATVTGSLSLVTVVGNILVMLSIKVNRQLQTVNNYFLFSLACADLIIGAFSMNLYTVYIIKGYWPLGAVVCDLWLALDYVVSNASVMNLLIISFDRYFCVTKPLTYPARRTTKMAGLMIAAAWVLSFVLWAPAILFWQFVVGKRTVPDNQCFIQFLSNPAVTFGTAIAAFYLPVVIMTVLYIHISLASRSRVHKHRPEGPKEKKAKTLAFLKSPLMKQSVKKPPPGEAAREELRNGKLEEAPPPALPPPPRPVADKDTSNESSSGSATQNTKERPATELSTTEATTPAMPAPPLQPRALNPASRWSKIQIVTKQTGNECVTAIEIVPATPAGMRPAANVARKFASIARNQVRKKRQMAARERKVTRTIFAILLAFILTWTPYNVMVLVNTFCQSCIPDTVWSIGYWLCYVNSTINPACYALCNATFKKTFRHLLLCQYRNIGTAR
Assay: mAChR M4 cell-based functional assay (calcium flux, potentiation of EC20 acetylcholine response)
Details: M4/Gqi5/CHO-K1 cells; for Emax at 30 µM: % ACh maximum at 30 μM; for EC50: PAM activity as increase in EC20 acetylcholine response
Method: Human M4 cDNA, along with the chimeric G protein Gqi5, were transfected into Chinese hamster ovary (CHO-K1) cells purchased from the American Type Culture Collection using Lipofectamine2000. M4/Gqi5/CHO cells were grown in Ham's F-12 medium containing 10% heat-inactivated fetal bovine serum (FBS), 20 mM HEPES, 500 μg/mL G418 sulfate, and 200 μg/mL Hygromycin B.
For high throughput measurement of agonist-evoked increases in intracellular calcium, CHO-K1 cells stably expressing muscarinic receptors were plated in growth medium lacking G418 and hygromycin at 15,000 cells/20 μL/well in Greiner 384-well black-walled, tissue culture (TC)-treated, clear-bottom plates (VWR). Cells were incubated overnight at 37° C. and 5% CO2. The next day, cells were washed using an ELX 405 (BioTek) with assay buffer; the final volume was then aspirated to 20 μL. Next, 20 μL of a 2.3 μM stock of Fluo-4/acetoxymethyl ester (Invitrogen, Carlsbad, Calif.), prepared as a 2.3 mM stock in DMSO and mixed in a 1:1 ratio with 10% (w/v) Pluronic F-127 and diluted in assay buffer, was added to the wells and the cell plates were incubated for 50 min at 37° C. and 5% CO2. Dye was removed by washing with the ELX 405 and the final volume was aspirated to 20 μL. Compound master plates were formatted in an 11 point concentration-response curve (CRC) format (1:3 dilutions) in 100% DMSO with a starting concentration of 10 mM using a BRAVO liquid handler (Agilent). Test compound CRCs were then transferred to daughter plates (240 nL) using the Echo acoustic plate reformatter (Labcyte, Sunnyvale, Calif.) and then diluted into assay buffer (40 μL) to a 2× stock using a Thermo Fisher Combi (Thermo Fisher Scientific, Waltham, Mass.).
Calcium flux was measured using the Functional Drug Screening System (FDSS) 6000 or 7000 (Hamamatsu Corporation, Tokyo, Japan) as an increase in the fluorescent static ratio. Compounds were applied to cells (20 μL, 2×) using the automated system of the FDSS at 2-4 seconds into the protocol and the data were collected at 1 Hz. At approximately 144 s, […] an EC20 concentration of the muscarinic receptor agonist acetylcholine was added (5×), followed by the addition of 12 μL of an EC80 concentration of acetylcholine at approximately the 230 s time point (5×). Agonist activity was analyzed as a concentration-dependent increase in calcium mobilization upon compound addition. Positive allosteric modulator activity was analyzed as a concentration-dependent increase in the EC20 acetylcholine response. Antagonist activity was analyzed as a concentration-dependent decrease in the EC80 acetylcholine response. Concentration-response curves were generated using a four-parameter logistical equation in XLFit curve fitting software (IDBS, Bridgewater, N.J.) for Excel (Microsoft, Redmond, Wash.) or Prism (GraphPad Software, Inc., San Diego, Calif.) or the Domatics software platform (Domatics, Bishop's Stortford, UK).
Compounds were synthesized as described above. Activity (EC50 and Emax) was determined in the mAChR M4 cell-based functional assay as described above and the data are shown in Table 2. The compound numbers correspond to the compound numbers used in Table 1.

Row | Emax at 30 µM [%] | EC50 [nM] | Compound
1 | 71.8 | 890 | Cc1c2c(N)c(C(=O)NC3CCC3)sc2nn2cnnc12 [Compound 6, 8-amino-N-cyclobutyl-9-methylthieno[3,2-e][1,2,4]triazolo[4,3-b]pyridazine-7-carboxamide]
2 | 42.5 | 7000 | Cc1c2c(N)c(C(=O)NC3CCN(c4ccccc4)CC3)sc2nn2cnnc12 [Compound 7, 8-amino-9-methyl-N-(1-phenylpiperidin-4-yl)thieno[3,2-e][1,2,4]triazolo[4,3-b]pyridazine-7-carboxamide]
3 | 78 | 370 | Cc1c2c(N)c(C(=O)NCc3cccc(F)c3)sc2nn2cnnc12 [Compound 8, 8-amino-N-(3-fluorobenzyl)-9-methylthieno[3,2-e][1,2,4]triazolo[4,3-b]pyridazine-7-carboxamide]
4 | 76.3 | 1120 | Cc1c2c(N)c(C(=O)NCc3ccc(F)cc3)sc2nn2cnnc12 [Compound 9, 8-amino-N-(4-fluorobenzyl)-9-methylthieno[3,2-e][1,2,4]triazolo[4,3-b]pyridazine-7-carboxamide]

Second part, the molecule before the results:

Row | Compound | Emax at 30 µM [%] | EC50 [nM]
5 | Cc1c2c(N)c(C(=O)N3CCCC3)sc2nn2cnnc12 [Compound 2, (8-amino-9-methylthieno[3,2-e][1,2,4]triazolo[4,3-b]pyridazin-7-yl)(pyrrolidin-1-yl)methanone] | 72.2 | 9670
6 | COc1ccc(CNC(=O)c2sc3nn4cnnc4c(C)c3c2N)cc1 [Compound 4, 8-amino-N-(4-methoxybenzyl)-9-methylthieno[3,2-e][1,2,4]triazolo[4,3-b]pyridazine-7-carboxamide] | 80.6 | 670
7 | Cc1c2c(N)c(C(=O)NC3Cc4ccccc4C3)sc2nn2cnnc12 [Compound 3, 8-amino-N-(2,3-dihydro-1H-inden-2-yl)-9-methylthieno[3,2-e][1,2,4]triazolo[4,3-b]pyridazine-7-carboxamide] | 82.3 | 90
8 | Cc1c2c(N)c(C(=O)NC3CC3)sc2nn2cnnc12 [Compound 5, 8-amino-N-cyclopropyl-9-methylthieno[3,2-e][1,2,4]triazolo[4,3-b]pyridazine-7-carboxamide] | 74.2 | 290
9 | Cc1c2c(N)c(C(=O)N3CCC(c4ccccc4)C3)sc2nn2cnnc12 (stereo not drawn) [Compound 1, (8-amino-9-methylthieno[3,2-e][1,2,4]triazolo[4,3-b]pyridazin-7-yl)(3-phenylpyrrolidin-1-yl)methanone] | 38.8 | 3330
